The results in this text go back to ChEMBL document CHEMBL1909046, “DrugMatrix in vitro pharmacology data”.

By IC50 is commonly meant the point on the concentration scale where inhibition reaches its midpoint. By Ki is commonly meant the dissociation constant of the complex between target and ligand, obtained from inhibition or displacement.

Series [1] has as its target Prostaglandin G/H synthase 1 (Homo sapiens, UniProt P23219). Kind of series: biochemical. Format: tissue-based, Platelet.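 Also: inhibition of COX-1 enzyme activity, with arachidonic acid supplied as substrate; in other assays of this panel Not Active means under 50% inhibition at 10 µM.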
In series [2] the target is T1, Alpha-1A adrenergic receptor (Rattus norvegicus, UniProt P43140).
T1 sequence (P43140 whole entry): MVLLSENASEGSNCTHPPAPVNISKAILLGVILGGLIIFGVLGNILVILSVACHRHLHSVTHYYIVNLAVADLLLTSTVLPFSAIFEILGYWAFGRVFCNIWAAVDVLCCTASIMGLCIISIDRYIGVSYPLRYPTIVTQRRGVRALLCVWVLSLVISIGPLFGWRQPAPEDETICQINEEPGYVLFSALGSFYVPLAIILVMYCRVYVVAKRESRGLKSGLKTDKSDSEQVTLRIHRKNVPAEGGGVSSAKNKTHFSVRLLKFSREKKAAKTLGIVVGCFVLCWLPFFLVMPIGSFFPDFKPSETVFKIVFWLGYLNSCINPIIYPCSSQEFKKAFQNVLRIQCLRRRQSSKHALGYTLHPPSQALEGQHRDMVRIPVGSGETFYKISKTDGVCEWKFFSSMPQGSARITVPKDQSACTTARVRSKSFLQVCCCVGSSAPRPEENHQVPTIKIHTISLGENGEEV
Briefly: DRUGMATRIX: Alpha-1A adrenergic receptor radioligand binding (ligand: prazosin). Format: cell membranes, Wistar, Submaxillary gland, Membrane. The settings on record: Not Active = under 50% inhibition at 10 µM.

Series [3] has as its target Kappa-type opioid receptor (Homo sapiens, UniProt P41145). Briefly: DRUGMATRIX: Opiate kappa (OP2, KOP) radioligand binding (ligand: [3H] Diprenorphine). It is filed as cell membranes, HEK293, Membrane. The settings on record: Not Active = under 50% inhibition at 10 µM.
A further series addresses Cytochrome P450 2D6 (Homo sapiens, UniProt P10635). As to conditions: bti-tn-5b1-4.
Series [4] addresses T2, Muscarinic acetylcholine receptor M2 (Homo sapiens, UniProt P08172).
T2 sequence (P08172 whole entry): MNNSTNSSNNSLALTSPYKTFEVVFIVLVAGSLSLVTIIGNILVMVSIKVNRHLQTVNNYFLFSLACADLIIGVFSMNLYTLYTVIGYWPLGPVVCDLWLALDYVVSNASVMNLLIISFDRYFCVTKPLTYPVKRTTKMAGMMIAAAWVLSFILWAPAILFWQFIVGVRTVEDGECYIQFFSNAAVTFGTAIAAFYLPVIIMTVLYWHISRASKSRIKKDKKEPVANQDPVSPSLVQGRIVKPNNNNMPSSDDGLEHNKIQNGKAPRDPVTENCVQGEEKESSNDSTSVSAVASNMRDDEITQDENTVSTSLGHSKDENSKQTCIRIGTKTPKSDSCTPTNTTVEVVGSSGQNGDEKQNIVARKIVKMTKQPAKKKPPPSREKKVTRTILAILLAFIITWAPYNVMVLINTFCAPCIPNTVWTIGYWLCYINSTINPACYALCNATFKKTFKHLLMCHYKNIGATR
Format: cell membranes, CHO-K1, Membrane. As to conditions: cho-k1.

The target in series [5] is T3, Alpha-2C adrenergic receptor (Homo sapiens, UniProt P18825).
T3 sequence (P18825 whole entry): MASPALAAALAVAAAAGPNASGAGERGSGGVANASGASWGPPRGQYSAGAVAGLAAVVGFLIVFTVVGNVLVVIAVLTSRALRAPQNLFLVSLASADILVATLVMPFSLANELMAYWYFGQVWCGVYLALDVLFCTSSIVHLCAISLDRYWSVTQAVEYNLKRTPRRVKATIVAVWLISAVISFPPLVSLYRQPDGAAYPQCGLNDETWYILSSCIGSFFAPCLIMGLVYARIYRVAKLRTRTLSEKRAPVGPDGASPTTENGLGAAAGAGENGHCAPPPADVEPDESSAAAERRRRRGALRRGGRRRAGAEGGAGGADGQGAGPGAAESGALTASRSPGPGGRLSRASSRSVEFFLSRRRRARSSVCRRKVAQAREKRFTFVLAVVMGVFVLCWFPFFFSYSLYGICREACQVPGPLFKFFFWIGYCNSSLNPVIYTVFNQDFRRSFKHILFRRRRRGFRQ
Briefly: DRUGMATRIX: Adrenergic Alpha-2C radioligand binding (ligand: [3H] MK-912). As to conditions: sf9. Format: cell membranes, Sf9, Membrane.

Kappa-type opioid receptor, sequence (P41145 whole entry): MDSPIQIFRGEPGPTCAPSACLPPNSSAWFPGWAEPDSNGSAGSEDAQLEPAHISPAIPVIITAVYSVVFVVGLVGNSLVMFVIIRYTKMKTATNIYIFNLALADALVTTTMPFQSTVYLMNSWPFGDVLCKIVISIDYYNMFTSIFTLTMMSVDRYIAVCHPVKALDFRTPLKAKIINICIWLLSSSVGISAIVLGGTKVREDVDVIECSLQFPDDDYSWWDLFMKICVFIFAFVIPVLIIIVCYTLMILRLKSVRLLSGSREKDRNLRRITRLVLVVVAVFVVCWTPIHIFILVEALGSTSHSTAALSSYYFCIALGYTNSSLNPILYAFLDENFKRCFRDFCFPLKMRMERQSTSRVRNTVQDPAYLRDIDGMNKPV
Cytochrome P450 2D6, sequence (P10635 whole entry): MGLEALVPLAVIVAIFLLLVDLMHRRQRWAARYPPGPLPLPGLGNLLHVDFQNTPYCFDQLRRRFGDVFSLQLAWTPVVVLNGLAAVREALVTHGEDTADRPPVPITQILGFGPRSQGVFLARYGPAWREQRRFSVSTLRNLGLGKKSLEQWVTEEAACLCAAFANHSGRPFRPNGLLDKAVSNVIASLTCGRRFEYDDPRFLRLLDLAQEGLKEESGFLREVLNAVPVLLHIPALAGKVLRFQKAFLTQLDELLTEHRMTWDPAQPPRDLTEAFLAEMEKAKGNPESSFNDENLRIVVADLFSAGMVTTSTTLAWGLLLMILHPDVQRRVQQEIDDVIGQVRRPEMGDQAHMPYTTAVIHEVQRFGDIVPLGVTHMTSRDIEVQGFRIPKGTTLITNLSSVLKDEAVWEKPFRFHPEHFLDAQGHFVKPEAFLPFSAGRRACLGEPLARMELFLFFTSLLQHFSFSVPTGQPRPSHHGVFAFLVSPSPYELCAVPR
Prostaglandin G/H synthase 1, sequence (P23219 whole entry): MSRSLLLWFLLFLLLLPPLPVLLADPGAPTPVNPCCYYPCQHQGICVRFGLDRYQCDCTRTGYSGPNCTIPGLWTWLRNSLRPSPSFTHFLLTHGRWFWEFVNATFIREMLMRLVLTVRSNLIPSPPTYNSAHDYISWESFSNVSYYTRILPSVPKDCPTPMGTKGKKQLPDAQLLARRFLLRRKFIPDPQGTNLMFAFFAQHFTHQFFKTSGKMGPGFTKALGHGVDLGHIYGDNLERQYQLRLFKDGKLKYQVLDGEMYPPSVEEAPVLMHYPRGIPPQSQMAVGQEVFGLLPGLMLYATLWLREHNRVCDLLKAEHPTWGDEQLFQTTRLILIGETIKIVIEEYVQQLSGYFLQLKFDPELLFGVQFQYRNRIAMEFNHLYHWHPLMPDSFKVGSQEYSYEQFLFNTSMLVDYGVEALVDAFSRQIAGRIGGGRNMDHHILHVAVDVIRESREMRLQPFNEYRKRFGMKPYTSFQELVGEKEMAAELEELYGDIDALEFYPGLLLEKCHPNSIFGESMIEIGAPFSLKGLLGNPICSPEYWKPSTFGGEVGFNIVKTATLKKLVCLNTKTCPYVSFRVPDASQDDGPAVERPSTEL

For `CC(C)(C)NC(=O)[C@@H]1C[C@@H]2CCCC[C@@H]2CN1C[C@@H](O)[C@H](Cc1ccccc1)NC(=O)[C@H](CC(N)=O)NC(=O)c1ccc2ccccc2n1`, the IC50 entry was “Not Active” in series [1] (platelet); “Not Active” in series [2]; 6.95 µM in series [3] (read-out: IC50); “Not Active” against Cytochrome P450 2D6; “Not Active” in series [4]; “Not Active” in series [5]. Besides, the Ki was 2.78 µM in series [3] and “Not Active” on Cytochrome P450 2D6.

For the compound `CC(=O)[C@@]1(O)CC[C@H]2[C@@H]3C[C@H](C)C4=CC(=O)CC[C@]4(C)[C@H]3CC[C@@]21C`, the IC50 entry (in series [1] (platelet); in series [2]; in series [3] (hek293); at Cytochrome P450 2D6; in series [4]; in series [5]) was “Not Active” throughout. For the same compound, the Ki result at Cytochrome P450 2D6 is given as “Not Active”.

On to `N[C@@H](Cc1ccc(N(CCCl)CCCl)cc1)C(=O)O`, for which the IC50 result (in series [1] (platelet); in series [2]; against Cytochrome P450 2D6; in series [4]; in series [5]) was “Not Active” throughout. The Ki entry at Cytochrome P450 2D6 is “Not Active”.

Regarding `CCCCc1oc2ccccc2c1C(=O)c1cc(I)c(OCCN(CC)CC)c(I)c1` [AMIODARONE], the IC50 entry in series [1] (platelet), in series [2] and in series [5] was “Not Active” in each case.

As to `OCCN(CCO)c1nc(N2CCCCC2)c2nc(N(CCO)CCO)nc(N3CCCCC3)c2n1` [DIPYRIDAMOLE], the IC50 result (in series [1] (platelet); in series [2]; in series [3] (hek293); at Cytochrome P450 2D6; in series [4]; in series [5]) was “Not Active” throughout. For the same compound, the Ki result on Cytochrome P450 2D6 was “Not Active”.

On to `Cc1oncc1C(=O)Nc1ccc(C(F)(F)F)cc1` [LEFLUNOMIDE], for which the IC50 entry (in series [1] (platelet); in series [2]; in series [3] (hek293); against Cytochrome P450 2D6; in series [4]; in series [5]) was “Not Active” throughout. Moreover, the Ki result at Cytochrome P450 2D6 is recorded as “Not Active”.

As for `c1ccc([C@H]2CN3CCSC3=N2)cc1` [LEVAMISOLE], the IC50 result (in series [1] (platelet); in series [2]; in series [3] (hek293); against Cytochrome P450 2D6; in series [4]; in series [5]) was “Not Active” throughout. The Ki result at Cytochrome P450 2D6 is recorded as “Not Active”.

Take `N[C@@H](Cc1ccc(O)c(O)c1)C(=O)O` [LEVODOPA]: the IC50 result (in series [1] (platelet); in series [2]; in series [3] (hek293); against Cytochrome P450 2D6; in series [4]; in series [5]) was “Not Active” throughout. At Cytochrome P450 2D6, the Ki entry is listed as “Not Active”.

With `N[C@@H](Cc1cc(I)c(Oc2ccc(O)c(I)c2)c(I)c1)C(=O)O` [LIOTHYRONINE], the IC50 entry (in series [1] (platelet); in series [2]; in series [3] (hek293); at Cytochrome P450 2D6; in series [4]; in series [5]) was “Not Active” in each case. Also, the Ki entry on Cytochrome P450 2D6 is reported as “Not Active”.

For the compound `O=NN(CCCl)C(=O)NC1CCCCC1` [LOMUSTINE], the IC50 result (in series [1] (platelet); in series [2]; in series [3] (hek293); against Cytochrome P450 2D6; in series [4]; in series [5]) was “Not Active” each time. The Ki entry at Cytochrome P450 2D6 is “Not Active”.

With `CCOC(=O)N1CCC(=C2c3ccc(Cl)cc3CCc3cccnc32)CC1` [LORATADINE], the IC50 entry in series [1] (platelet), in series [2], in series [3] (hek293), in series [4] and in series [5] was “Not Active” throughout.

For the compound `Cn1ccnc1S` [METHIMAZOLE], the IC50 entry (in series [1] (platelet); in series [2]; in series [3] (hek293); against Cytochrome P450 2D6; in series [4]; in series [5]) was “Not Active” in each case. For the same compound, at Cytochrome P450 2D6, the Ki result was “Not Active”.

Turning to `CC[C@@H](CO)NC(=O)[C@@H]1C=C2c3cccc4[nH]cc(c34)C[C@H]2N(C)C1` [METHYLERGONOVINE], the IC50 entry in series [1] (platelet), in series [2], in series [4] and in series [5] was “Not Active” throughout.

For the compound `COc1nc(C)nc(Cl)c1NC1=NCCN1` [MOXONIDINE], the half-maximal inhibitory concentration (IC50) result (in series [1] (platelet); in series [2]; in series [3] (hek293); on Cytochrome P450 2D6; in series [4]; in series [5]) was “Not Active” each time. For the same compound, the Ki entry on Cytochrome P450 2D6 is on record as “Not Active”.

As for `COc1c(C)c2c(c(O)c1C/C=C(\C)CCC(=O)O)C(=O)OC2` [MYCOPHENOLIC ACID], the IC50 entry (in series [1] (platelet); in series [2]; in series [3] (hek293); against Cytochrome P450 2D6; in series [4]; in series [5]) was “Not Active” each time. On Cytochrome P450 2D6, the Ki result is on record as “Not Active”.

On to `O=c1ncn2nc(Sc3ccc(F)cc3F)ccc2c1-c1c(Cl)cccc1Cl` [NEFLAMAPIMOD], for which the IC50 entry (in series [1] (platelet); in series [2]; in series [3] (hek293); against Cytochrome P450 2D6; in series [4]; in series [5]) was “Not Active” in each case. For the same compound, on Cytochrome P450 2D6, the Ki entry is listed as “Not Active”.

With `CN1CCN(CCCN2c3ccccc3Sc3ccc(Cl)cc32)CC1` [PROCHLORPERAZINE], the half-maximal inhibitory concentration (IC50) entry in series [1] (platelet) is “Not Active”; in series [2] (read-out: IC50) it was 0.032 µM; in series [3] (hek293) it was “Not Active”. Besides, the Ki in series [2] (read-out: Ki) came to 0.013 µM.

With `Nc1nc2ccc(OC(F)(F)F)cc2s1` [RILUZOLE], the IC50 entry in series [1] (platelet), in series [2], in series [3] (hek293), in series [4] and in series [5] was “Not Active” in each case.

`Cc1nc2n(c(=O)c1CCN1CCC(c3noc4cc(F)ccc34)CC1)CCCC2` [RISPERIDONE]: the IC50 result in series [1] (platelet), in series [3] (hek293) and in series [4] was “Not Active” each time.

Take `CSc1ccc(/C=C2/C(C)=C(CC(=O)O)c3cc(F)ccc32)cc1` [SULINDAC SULFIDE]: the IC50 entry (in series [2]; in series [3] (hek293); against Cytochrome P450 2D6; in series [4]; in series [5]) was “Not Active” each time. For the same compound, the Ki result on Cytochrome P450 2D6 was “Not Active”.

With `Nc1c2c(nc3ccccc13)CCCC2` [TACRINE], the IC50 result is “Not Active” in series [1] (platelet); 2.75 µM in series [2] (read-out: IC50); “Not Active” in series [3] (hek293); “Not Active” in series [4]; “Not Active” in series [5]. In addition, the Ki in series [2] (read-out: Ki) was 1.11 µM.

With `CC/C(=C(\c1ccccc1)c1ccc(OCCN(C)C)cc1)c1ccccc1` [TAMOXIFEN], the half-inhibitory concentration (IC50) in series [1] (read-out: IC50) is 4.39 µM; in series [2] (read-out: IC50), 22.1 µM; in series [5] it was “Not Active”. The Ki in series [2] (read-out: Ki) came to 8.92 µM; in series [3], 6.25 µM.

As to SODIUM NITROPRUSSIDE, the IC50 result (in series [1] (platelet); in series [2]; on Cytochrome P450 2D6; in series [4]; in series [5]) was “Not Active” each time. Further, the Ki result (in series [1] (platelet); in series [2]; at Cytochrome P450 2D6; in series [4]; in series [5]) was “Not Active” in each case.
